Measured values reported in paper PMC8839448, “Novel Pyridothienopyrimidine Derivatives: Design, Synthesis and Biological Evaluation as Antimicrobial and Anticancer Agents” (Molecules, 2022).
≈ marks a conversion by molar mass, not a printed value.

What was measured:
[1] = tested on: Bacillus subtilis 6633; assay: In vitro antibacterial activity, MIC by broth dilution; format: cell-based; settings: Gram +ve bacteria, read-out: MIC B. subtilis
[2] = tested on: breast cancer (MCF-7) cells; assay: Cytotoxicity, MTT assay; format: cell-based, human; settings: Homo sapiens, MCF7, MCF7 cells, read-out: Cytotoxic activity IC50 MCF7
[3] = tested on: Candida tropicals 750; assay: In vitro antifungal activity, MIC by broth dilution; format: cell-based; settings: yeast, read-out: MIC C. tropicals
[4] = tested on: hepatocellular carcinoma (HepG2) cells; assay: Cytotoxicity, MTT assay; format: cell-based; settings: Homo sapiens, read-out: Cytotoxic activity IC50 HepG2
[5] = tested on: Aspergillus niger EM77 (KF774181); assay: In vitro antifungal activity, MIC by broth dilution; format: cell-based; settings: fungi
[6] = tested on: Bacillus cereus 33018; assay: In vitro antibacterial activity, MIC by broth dilution; format: cell-based; settings: Gram +ve bacteria, read-out: MIC B. cereus
[7] = tested on: Saccharomycese cerevisiae; assay: In vitro antifungal activity, MIC by broth dilution; format: cell-based; settings: Saccharomyces cerevisiae, yeast, read-out: MIC S. cerevisiae
[8] = tested on: Salmonella typhimurium 14028; assay: In vitro antibacterial activity, MIC by broth dilution; format: cell-based; settings: Salmonella enterica, Gram −ve bacteria, read-out: MIC S. typhimurium
[9] = tested on: Escherichia coli 8739; assay: as above; format: cell-based; settings: Gram −ve bacteria
[10] = tested on: Aspergillus flavus; assay: In vitro antifungal activity, MIC by broth dilution; format: cell-based; settings: fungi
[11] = tested on: Candida albicans 10231; assay: as above; format: cell-based; settings: yeast, read-out: MIC C. albicans
[12] = tested on: Staphylococcus aureus 25923; assay: In vitro antibacterial activity, MIC by broth dilution; format: cell-based; settings: Gram +ve bacteria, read-out: MIC S. aureus
[13] = tested on: all the tested yeasts and fungi strains; assay: Antifungal MIC, range over the panel; format: cell-based

Compound | melting point | MIC [1] | IC50 [2] | MIC [3] | IC50 [4] | MIC [5] | MIC [6] | MIC [7] | MIC [8] | MIC [9] | MIC [10] | MIC [11] | MIC [12] | MIC range against the tested yeasts and fungi strains [13]
Cc1ccc(-c2cc(-c3ccccc3)nc3sc4c(c23)NC2(CCCCC2)NC4=S)cc1 [Compound 7d, 7′-Phenyl-9′-(p-tolyl)-1′H-spiro[cyclohexane-1,2′-pyrido[3′,2′:4,5]thieno[3,2-d]pyrimidine]-4′(3′H)-thione] | 178 to 179 °C | 64 µg/mL (≈ 140 µM) | 26.6 ± 1.62 µM | 64 µg/mL (≈ 140 µM) | 23.2 ± 0.35 µM | 64 µg/mL (≈ 140 µM) | 64 µg/mL (≈ 140 µM) | 32 µg/mL (≈ 70.2 µM) | 32 µg/mL (≈ 70.2 µM) | 32 µg/mL (≈ 70.2 µM) | 64 µg/mL (≈ 140 µM) | 32 µg/mL (≈ 70.2 µM) | 4 µg/mL (≈ 8.78 µM) | 
Cc1cc(C)c2c3c(sc2n1)C(=S)NC1(CCCCC1)N3 [Compound 7c, 7′,9′-Dimethyl-1′H-spiro[cyclohexane-1,2′-pyrido[3′,2′:4,5]thieno[3,2-d]pyrimidine]-4′(3′H)-thione] | 201 °C | 32 µg/mL (≈ 101 µM) | 20.9 ± 0.93 µM | 8 µg/mL (≈ 25.2 µM) | 10.3 ± 0.31 µM | 16 µg/mL (≈ 50.4 µM) | 8 µg/mL (≈ 25.2 µM) | 8 µg/mL (≈ 25.2 µM) | 32 µg/mL (≈ 101 µM) | 32 µg/mL (≈ 101 µM) | 4 µg/mL (≈ 12.6 µM) | 16 µg/mL (≈ 50.4 µM) | 32 µg/mL (≈ 101 µM) | 4 to 16 µg/mL
Cc1ccc(-c2cc(-c3ccccc3)nc3sc4c(Cl)nc(Cl)nc4c23)cc1 [Compound 3b, 2,4-Dichloro-7-phenyl-9-(p-tolyl)pyrido[3′,2′:4,5]thieno[3,2-d]pyrimidine] | 220 °C | 8 µg/mL (≈ 18.9 µM) | 24.7 ± 1.32 µM | 16 µg/mL (≈ 37.9 µM) | 11.3 ± 0.65 µM | 16 µg/mL (≈ 37.9 µM) | 32 µg/mL (≈ 75.8 µM) | 64 µg/mL (≈ 152 µM) | 32 µg/mL (≈ 75.8 µM) | 16 µg/mL (≈ 37.9 µM) | 32 µg/mL (≈ 75.8 µM) | 32 µg/mL (≈ 75.8 µM) | 32 µg/mL (≈ 75.8 µM) | 
Cc1cc(C)c2c(n1)sc1c(=O)[nH]c(=O)[nH]c12 [Compound 2a, 7,9-Dimethylpyrido[3′,2′:4,5]thieno[3,2-d]pyrimidine-2,4(1H,3H)-dione] |  | > 128 µg/mL | 64.3 ± 2.91 µM | 128 µg/mL (≈ 518 µM) | 56.6 ± 3.64 µM | > 128 µg/mL | 64 µg/mL (≈ 259 µM) | 16 µg/mL (≈ 64.7 µM) | > 128 µg/mL | > 128 µg/mL | > 128 µg/mL | 128 µg/mL (≈ 518 µM) | > 128 µg/mL | 
Cc1ccc(-c2cc(-c3ccccc3)nc3sc4c(=O)[nH]c(CN5CCN(C)CC5)nc4c23)cc1 [Compound 5b, 2-((4-Methylpiperazin-1-yl)methyl)-7-phenyl-9-(p-tolyl)pyrido[3′,2′:4,5]thieno[3,2-d]pyrimidin-4(3H)-one] | 260 to 261 °C | 8 µg/mL (≈ 16.6 µM) | 21.1 ± 1.16 µM | 16 µg/mL (≈ 33.2 µM) | 10.2 ± 0.29 µM | 64 µg/mL (≈ 133 µM) | 16 µg/mL (≈ 33.2 µM) | 16 µg/mL (≈ 33.2 µM) | 32 µg/mL (≈ 66.4 µM) | 32 µg/mL (≈ 66.4 µM) | 32 µg/mL (≈ 66.4 µM) | 64 µg/mL (≈ 133 µM) | 8 µg/mL (≈ 16.6 µM) | 
Cc1ccc(-c2cc(-c3ccccc3)nc3sc4c(=O)[nH]c(=O)[nH]c4c23)cc1 [Compound 2b, 7-Phenyl-9-(p-tolyl)pyrido[3′,2′:4,5]thieno[3,2-d]pyrimidine-2,4(1H,3H)-dione] | 316 to 317 °C | 128 µg/mL (≈ 332 µM) | 42.4 ± 2.24 µM | 32 µg/mL (≈ 83 µM) | 33.2 ± 1.79 µM | 32 µg/mL (≈ 83 µM) | 64 µg/mL (≈ 166 µM) | 32 µg/mL (≈ 83 µM) | 64 µg/mL (≈ 166 µM) | 128 µg/mL (≈ 332 µM) | 32 µg/mL (≈ 83 µM) | 64 µg/mL (≈ 166 µM) | 64 µg/mL (≈ 166 µM) | 
Cc1cc(C)c2c3c(sc2n1)C(=S)NC1(CCCC1)N3 [Compound 7a, 7′,9′-Dimethyl-1′H-spiro[cyclopentane-1,2′-pyrido[3′,2′:4,5]thieno[3,2-d]pyrimidine]-4′(3′H)-thione] |  | > 128 µg/mL | 28.1 ± 0.92 µM | 16 µg/mL (≈ 52.7 µM) | 26.1 ± 1.89 µM | 16 µg/mL (≈ 52.7 µM) | 8 µg/mL (≈ 26.4 µM) | 8 µg/mL (≈ 26.4 µM) | 16 µg/mL (≈ 52.7 µM) | 8 µg/mL (≈ 26.4 µM) | 16 µg/mL (≈ 52.7 µM) | 16 µg/mL (≈ 52.7 µM) | 4 µg/mL (≈ 13.2 µM) | 4 to 16 µg/mL
